The series is described as follows: gradient 5% acetonitrile 3 min, to 50% in 2 min, to 85% in 15 min, held 3 min, 100 µL/min. The following applies: column: Zorbax Extend-C18 2.1 x 50 mm; eluents: water / acetonitrile, 0.1% formic acid. The procedure, abridged: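 The mobile phases were water and acetonitrile, each with 0.1% formic acid, pumped at 100 μL/min through a Zorbax Extend-C18 column (2.1 × 50 mm, 1.8 μm). Pure standards were injected as mixtures of ~100 molecules and detected by a quadrupole time-of-flight mass spectrometer in positive and negative ionization mode. Retention time came from computationally picked adduct peaks, each inspected by hand.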
`Cc1nc(C(C)C)nc2c1CCC(=O)N2Cc1cccnc1` registered an RP-LC retention time of 519 s.

`O=C(C1=CN(c2ccc3c(c2)OCCO3)c2cc(F)ccc2S1(=O)=O)N1CCOCC1` showed an RP-LC retention time of 750 s.

`O=C(CSc1ccccc1)N1CCc2nc(-c3ccc(F)cc3)ncc2C1` returned an RP-LC retention time of 1000 s.

On to `COc1ccc(CCNC(=O)C2CCCN(S(=O)(=O)c3ccc(OC)c(C)c3)C2)cc1` (stereo not drawn), for which the RP-LC retention time was 891 s.

Take `COc1ccc(NC(=O)NCC(c2cccnc2)c2c[nH]c3ccccc23)c(OC)c1` (stereo not drawn): the RP-LC retention time was determined as 650 s.

In turn, `CCc1nccn1Cc1noc(-c2cccc(OC)c2)n1` displayed an RP-LC retention time of 557 s.

`Cc1ccc(NC(=O)C2CCN(S(=O)(=O)c3cc(-c4noc(C5CC5)n4)ccc3C)CC2)nc1` yielded an RP-LC retention time of 868 s.

`CCc1nn(C)c(=O)c2cc(S(=O)(=O)NCc3ccccc3F)cn12` registered an RP-LC retention time of 860 s.

For the compound `CCc1noc(NC(C)=O)c1-c1ccc(C)c(S(=O)(=O)NCc2ccc3c(c2)OCO3)c1`, the RP-LC retention time stood at 814 s.

For `Cc1ccc(NS(=O)(=O)c2cc(-c3[nH]ncc3C(=O)N3CCCC3)oc2C)cc1Cl`, the RP-LC retention time came out at 803 s.

Compound `COc1ccc(-n2c(=O)n(C)c(=O)c3cc(C(=O)Nc4ccc(F)cc4C)cnc32)cc1` gave an RP-LC retention time of 866 s.

In the case of `CC(C)Cc1noc(C2(F)CCN(S(=O)(=O)c3ccccc3)CC2)n1`, the RP-LC retention time came to 691 s.

`Cc1ccc(Cn2c(CN3CCC(C(=O)NC4CC4)CC3)cc3ccccc32)cc1` returned an RP-LC retention time of 716 s.

In the case of `COC(=O)c1cc2c(=O)n(CCc3cccs3)ccc2nc1C`, the RP-LC retention time is 838 s.

Take `CC1CCN(c2nccnc2Oc2ccc(C(=O)Nc3ccc4c(c3)OCCO4)cc2)CC1`: the RP-LC retention time turned out to be 1080 s.

For the compound `CCc1noc(NC(C)=O)c1-c1ccc(C)c(S(=O)(=O)N2CCCCCC2)c1`, the RP-LC retention time came to 926 s.

With `CC1=NS(=O)(=O)N(Cc2ccccc2)C=C1C(=O)OCc1cccc(C)c1`, the RP-LC retention time came out at 1140 s.

For the compound `O=c1c2nnc(SCc3ccc(F)cc3)n2ccn1-c1ccc(F)cc1`, the RP-LC retention time amounted to 812 s.

Regarding `Cc1ccc(NC(=O)Cn2c(=O)n(-c3ccc(F)cc3)c(=O)c3c2cc(C)n3C)c(C)c1`, the RP-LC retention time came to 879 s.

Compound `Cc1cc(C2CCCN2C(=O)Nc2ccc(C)c(C)c2)on1` (stereo not drawn) came in with an RP-LC retention time of 728 s.

The compound `CCOC(=O)Cc1c(C)nc2c(-c3ccccc3OC)c(C)nn2c1C` gave an RP-LC retention time of 943 s.

In turn, `O=C(c1ccc2[nH]ccc2c1)N1CCN(C(=O)c2nnn3c2COC(c2ccccc2)C3)CC1` (stereo not drawn) yielded an RP-LC retention time of 793 s.

Compound `CCOC(=O)c1cn[nH]c1S(=O)(=O)N1CCN(c2ccccn2)CC1` displayed an RP-LC retention time of 582 s.

Compound `COCCc1nnc(NC(=O)c2cn(C)nc2OC)o1` gave an RP-LC retention time of 558 s.

`CCN1C(=O)c2cc(S(=O)(=O)Nc3ccc(F)c(Cl)c3)ccc2Oc2cccnc21` gave an RP-LC retention time of 1090 s.

As to `Cc1ccc(Cl)cc1NC(=O)NC1CCN(c2ccc(F)cc2)C1=O` (stereo not drawn), the RP-LC retention time turned out to be 867 s.

For `CCn1cc(-c2ccncc2)cc1C(=O)NCc1ccc(N(C)C)cc1`, the RP-LC retention time was 559 s.

As for `CCc1nc2cc(-c3noc(CCc4ccc(OC)cc4)n3)ccc2o1`, the RP-LC retention time was 1130 s.

As for `Cc1cc(Br)ccc1NC(=O)Cn1cnc2c(nc3n2CCCCC3)c1=O`, the RP-LC retention time is 711 s.

The compound `O=C(NCc1ccco1)c1ccc2c(c1)CC(=O)N2Cc1ccc(F)cc1` came in with an RP-LC retention time of 794 s.

Compound `O=C(Nc1cccc(Br)c1)N1CCN(Cc2nc3cccnc3n2-c2ccccc2)CC1` showed an RP-LC retention time of 703 s.

`O=C(Nc1cccc(Cl)c1)C1CCN(S(=O)(=O)c2cc(C(=O)N3CCOCC3)cs2)CC1` displayed an RP-LC retention time of 850 s.

`CC(C)Cn1c(=O)c(N2CCN(C(=O)CSc3ccccc3)CC2)nc2ccncc21` yielded an RP-LC retention time of 724 s.

As to `CSc1cccc(NC(=O)Cn2cccc(-c3nc(-c4ccc(F)cc4)no3)c2=O)c1`, the RP-LC retention time was 939 s.

In the case of `Cc1ccc(C)c(NC(=O)Cn2nc3c(N4CCC(C)CC4)nccn3c2=O)c1`, the RP-LC retention time is 864 s.

`O=C(CN1C(=O)C(C(=O)N2CCCC2)Sc2ccccc21)NCCc1ccccc1` (stereo not drawn) gave an RP-LC retention time of 898 s.

The compound `Cc1cc2nn(CC(=O)NCC3CCCO3)c(=O)n2c(Nc2ccc(F)cc2)n1` (stereo not drawn) registered an RP-LC retention time of 722 s.

As for `O=C(NCCc1ccco1)C1CCN(c2nc3cccnc3s2)CC1`, the RP-LC retention time amounted to 697 s.

With `COC(=O)c1c(-c2ccc(F)cc2)noc1NCCc1cccs1`, the RP-LC retention time stood at 1090 s.

As to `CCCC(=O)Nc1nc(-c2ccc(OC)cc2)c(C)s1`, the RP-LC retention time came to 956 s.

The compound `COc1cc2c(cc1CC=C(C)C)C(=O)C[C@@H](c1ccc(O)cc1)O2` came in with an RP-LC retention time of 1190 s.

In turn, `CN(C)CCNC(=O)c1cc(N2CCCC2)n2nccc2n1` had an RP-LC retention time of 590 s.

In turn, `O=C(CCS(=O)(=O)c1ccccc1)NCCOc1ccc(-c2ccc(F)cc2)nn1` returned an RP-LC retention time of 715 s.

For `CN(CC1CCCO1)S(=O)(=O)c1ccc(C(=O)Nc2ccc3sccc3c2)cc1` (stereo not drawn), the RP-LC retention time came out at 891 s.

`O=c1c(NCc2ccccc2Cl)nccn1-c1ccc2c(c1)OCO2` displayed an RP-LC retention time of 932 s.

As for `O=C1C(O)=C(S(=O)(=O)c2ccccc2)C(c2ccccc2)N1Cc1ccccc1` (stereo not drawn), the RP-LC retention time worked out at 947 s.

In turn, `COc1ccc(-c2nc(C)cc(C)c2CNS(=O)(=O)c2ccccc2)cc1` registered an RP-LC retention time of 639 s.

For the compound `COc1ccc(NC(=O)N2CCCC2c2nc(-c3ccccc3OC)no2)cc1Cl` (stereo not drawn), the RP-LC retention time amounted to 892 s.

Take `CCCS(=O)(=O)N1CC(n2cc(C(=O)N3CCCC3)nn2)C1`: the RP-LC retention time worked out at 654 s.

`Cc1ccc2c(ccn2CCNC(=O)C2CC(=O)N(c3n[nH]c4ccccc34)C2)c1` (stereo not drawn) returned an RP-LC retention time of 766 s.

As for `COc1ccc(CCNc2ncc(C(=O)O)c(C(C)C)n2)cc1OC`, the RP-LC retention time is 820 s.

Compound `COc1ccc2c(c1)-c1nc(NC(=O)c3ccc(Br)cc3)sc1CC2` gave an RP-LC retention time of 1250 s.

Regarding `O=C(NC1(c2nc(-c3cccnc3)no2)CCCCC1)c1ccoc1`, the RP-LC retention time stood at 802 s.

Compound `COc1ccc(NS(=O)(=O)c2cc(-c3[nH]ncc3C(=O)N(C)C)oc2C)cc1` yielded an RP-LC retention time of 658 s.

`Cc1cccc(N2CCN(S(=O)(=O)c3cc(-c4cc(C(F)(F)F)on4)cs3)CC2)c1C`: the RP-LC retention time was 1420 s.

As for `Cc1cc2nc(C)c(=O)n(CCC(=O)NCCc3c[nH]c4ccc(Cl)cc34)c2cc1C`, the RP-LC retention time amounted to 902 s.

Compound `COc1ccc(N2C(=O)N[C@@H]3C[C@]2(C)Oc2ccc(C)cc23)cc1OC` showed an RP-LC retention time of 735 s.

`CN(C)CCNC(=O)CN1C(=O)C2CCCCN2c2ccc(S(=O)(=O)N3CCCC3)cc21` (stereo not drawn) displayed an RP-LC retention time of 775 s.

Turning to `COc1ccc(F)cc1S(=O)(=O)N1CCC2(CC1)NCCCN=C2NC1CCCC1`, the RP-LC retention time came to 607 s.

In turn, `O=C(NCc1ccco1)C(=O)NCC1OCCN1C(=O)c1ccc(Cl)cc1` (stereo not drawn) registered an RP-LC retention time of 705 s.

`O=C(NCc1ccccc1)c1cn(-c2ccc(-c3nc(C4CC4)no3)cn2)cn1` displayed an RP-LC retention time of 915 s.

As to `Cn1c(=O)c(F)c(Nc2ccc(I)cc2F)c2c(=O)n(C[C@@H](O)CO)cnc21`, the RP-LC retention time worked out at 756 s.

Regarding `CCOCCCNC(=O)N1CCCCCC1c1cccc(C)c1` (stereo not drawn), the RP-LC retention time worked out at 954 s.

In turn, `CCCCS(=O)(=O)N1CCc2nc(-c3ccc(Cl)cc3)ncc2C1` had an RP-LC retention time of 1130 s.

With `CC(C)N1C(=O)c2cccnc2Sc2cc(NC(=O)C3CCCCC3)ccc21`, the RP-LC retention time was 920 s.

Consider `Cc1cc(N2CCOCC2)nc(N2CCN(C(=O)C3CCCCC3)CC2)n1`, for which the RP-LC retention time came out at 625 s.

`Cn1cnc(S(=O)(=O)N2CCCN(S(=O)(=O)c3cccc4nsnc34)CCNC(=O)CC2c2ccccc2)c1` (stereo not drawn) had an RP-LC retention time of 702 s.

As to `O=C(NCc1cccnc1)C1CCCN(S(=O)(=O)c2cc(-c3noc(C4CCC4)n3)cs2)C1` (stereo not drawn), the RP-LC retention time worked out at 825 s.

The compound `CCC(C)NS(=O)(=O)c1ccccc1-c1nc(-c2ccc(C)cc2)no1` (stereo not drawn) registered an RP-LC retention time of 1270 s.

`Cn1nc(-c2nnc(-c3ccccc3F)o2)c2c1CCN(S(=O)(=O)c1cc(F)ccc1F)C2` came in with an RP-LC retention time of 928 s.

Regarding `O=C(NCCc1ccccc1)NCCn1c(-c2ccccc2)nc2cccnc21`, the RP-LC retention time came to 683 s.

`COc1ccc(-c2ncc3c(n2)CCN(S(=O)(=O)c2ccccc2C)C3)cc1` returned an RP-LC retention time of 1070 s.

`Cc1cccn2cc(-c3cccc(S(=O)(=O)N4CC(C)OC(C)C4)c3)nc12` (stereo not drawn) showed an RP-LC retention time of 671 s.

The compound `Cc1ccc(-c2noc(-c3cccc(S(=O)(=O)Nc4ccccc4)c3)n2)cc1` returned an RP-LC retention time of 1200 s.

In turn, `CC(C)c1noc(-c2cc(=O)n(CC(=O)Nc3cc(F)ccc3F)c3ccccc23)n1` came in with an RP-LC retention time of 1040 s.

Consider `CC(C)(C)CNC(=O)c1cc(=O)[nH]c2ccccc12`, for which the RP-LC retention time stood at 869 s.

The compound `Cc1cnc(C2CN(C(=O)C3(C)CCCCC3)C2)n1Cc1ccncc1` returned an RP-LC retention time of 566 s.

As to `Cc1ccc(-c2nc(C3CC(=O)N(c4ccc(F)cc4)C3)no2)cc1C` (stereo not drawn), the RP-LC retention time came out at 1100 s.

Source of the values: the METLIN SMRT retention time set (Domingo-Almenara et al. 2019).
